According to ChEMBL document CHEMBL4043271, “Synthesis, computational studies and enzyme inhibitory kinetics of substituted methyl[2-(4-dimethylamino-benzylidene)-hydrazono)-4-oxo-thiazolidin-5-ylidene]acetates as mushroom tyrosinase inhibitors” (Bioorg Med Chem, 2017):
Active and inactive are the calls of the source. The calls are words filed in the database; no cut-off is given here.

Tests used:
Mushroom tyrosinase [1] = biological target: T1, Mushroom tyrosinase (Agaricus bisporus, UniProt O42713+Q00024+C7FF04+C7FF05); experiment: Inhibition of mushroom tyrosinase using L-DOPA as substrate preincubated for 10 mins followed by substrate addition measured after 20 mins
[2] = tested on: COC(=O)/C=C1\S/C(=N/N=C/c2ccncc2)NC1=O; experiment: Non-competitive inhibition of mushroom tyrosinase assessed as Vmax of substrate at 17 uM preincubated for 10 mins followed by addition of varying concentration of substrate L-DOPA measured every 30 secs up to 5 mins by Lineweaver-Burk plot analysis (reference value: […] deltaA/s); conditions: Agaricus bisporus
[3] = tested on: COC(=O)/C=C1\S/C(=N/N=C/c2ccncc2)NC1=O; experiment: Non-competitive inhibition of mushroom tyrosinase assessed as Vmax of substrate at 8.50 uM preincubated for 10 mins followed by addition of varying concentration of substrate L-DOPA measured every 30 secs up to 5 mins by Lineweaver-Burk plot analysis (reference value: […] deltaA/s); conditions: Agaricus bisporus
[4] = tested on: COC(=O)/C=C1\S/C(=N/N=C/c2ccncc2)NC1=O; experiment: Non-competitive inhibition of mushroom tyrosinase assessed as substrate Km at 1.06 to 17 uM preincubated for 10 mins followed by addition of varying concentration of substrate L-DOPA measured after 20 mins by Lineweaver-Burk plot analysis (reference value: […] mM); conditions: Agaricus bisporus
[5] = tested on: COC(=O)/C=C1\S/C(=N/N=C/c2ccncc2)NC1=O; experiment: Non-competitive inhibition of mushroom tyrosinase assessed as Vmax of substrate at 1.06 uM preincubated for 10 mins followed by addition of varying concentration of substrate L-DOPA measured every 30 secs up to 5 mins by Lineweaver-Burk plot analysis (reference value: […] deltaA/s); conditions: Agaricus bisporus
[6] = biological target: Mushroom tyrosinase (Agaricus bisporus) (UniProt O42713+Q00024+C7FF04+C7FF05); experiment: Non-competitive inhibition of mushroom tyrosinase at 1.06 to 34 uM preincubated for 10 mins followed by addition of varying concentration of substrate L-DOPA measured after 20 mins by Dixon plot analysis
Mushroom tyrosinase [7] = biological target: T1, Mushroom tyrosinase; experiment: Non-competitive inhibition of mushroom tyrosinase at 1.06 to 17 uM preincubated for 10 mins followed by addition of varying concentration of substrate L-DOPA measured after 20 mins by Lineweaver-Burk plot analysis

Sequence of Mushroom tyrosinase (Agaricus bisporus) (from UniProt O42713+Q00024+C7FF04+C7FF05) (C7FF05 whole entry, looked up): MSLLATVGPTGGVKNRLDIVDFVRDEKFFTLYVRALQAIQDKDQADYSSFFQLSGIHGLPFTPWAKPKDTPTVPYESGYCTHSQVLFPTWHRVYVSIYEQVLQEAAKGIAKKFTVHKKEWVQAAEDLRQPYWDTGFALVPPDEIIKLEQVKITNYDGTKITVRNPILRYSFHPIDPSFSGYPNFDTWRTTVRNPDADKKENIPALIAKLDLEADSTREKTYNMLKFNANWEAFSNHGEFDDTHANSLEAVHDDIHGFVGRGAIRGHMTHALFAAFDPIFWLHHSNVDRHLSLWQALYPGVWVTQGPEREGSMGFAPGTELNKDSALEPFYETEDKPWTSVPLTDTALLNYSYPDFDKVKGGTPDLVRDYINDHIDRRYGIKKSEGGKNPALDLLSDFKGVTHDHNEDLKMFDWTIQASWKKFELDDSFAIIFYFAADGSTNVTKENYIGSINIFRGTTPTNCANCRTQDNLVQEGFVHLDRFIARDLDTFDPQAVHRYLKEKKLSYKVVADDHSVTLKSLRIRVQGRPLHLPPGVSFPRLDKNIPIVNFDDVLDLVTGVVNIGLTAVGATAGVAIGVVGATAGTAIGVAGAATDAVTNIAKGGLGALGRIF
Sequence of Mushroom tyrosinase (Agaricus bisporus) (from UniProt O42713+Q00024+C7FF04+C7FF05) (C7FF04 whole entry, looked up): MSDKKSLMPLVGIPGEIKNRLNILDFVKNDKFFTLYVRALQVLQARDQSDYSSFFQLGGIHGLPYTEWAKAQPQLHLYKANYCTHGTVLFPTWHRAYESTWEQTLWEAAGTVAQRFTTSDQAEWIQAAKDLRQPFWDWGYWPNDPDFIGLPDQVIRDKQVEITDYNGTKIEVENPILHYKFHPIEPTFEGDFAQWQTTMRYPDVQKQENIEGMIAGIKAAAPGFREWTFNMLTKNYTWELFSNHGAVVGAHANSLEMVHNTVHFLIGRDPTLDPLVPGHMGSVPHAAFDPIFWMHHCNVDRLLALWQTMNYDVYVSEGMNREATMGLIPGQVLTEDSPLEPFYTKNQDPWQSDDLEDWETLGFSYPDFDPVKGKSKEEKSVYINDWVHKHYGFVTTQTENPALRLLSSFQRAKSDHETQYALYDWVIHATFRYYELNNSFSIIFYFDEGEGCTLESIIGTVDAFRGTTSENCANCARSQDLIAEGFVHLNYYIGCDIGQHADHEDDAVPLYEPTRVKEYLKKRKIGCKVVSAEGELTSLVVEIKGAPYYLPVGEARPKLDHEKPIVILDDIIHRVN
Sequence of Mushroom tyrosinase (Agaricus bisporus) (from UniProt O42713+Q00024+C7FF04+C7FF05) (Q00024 whole entry, looked up): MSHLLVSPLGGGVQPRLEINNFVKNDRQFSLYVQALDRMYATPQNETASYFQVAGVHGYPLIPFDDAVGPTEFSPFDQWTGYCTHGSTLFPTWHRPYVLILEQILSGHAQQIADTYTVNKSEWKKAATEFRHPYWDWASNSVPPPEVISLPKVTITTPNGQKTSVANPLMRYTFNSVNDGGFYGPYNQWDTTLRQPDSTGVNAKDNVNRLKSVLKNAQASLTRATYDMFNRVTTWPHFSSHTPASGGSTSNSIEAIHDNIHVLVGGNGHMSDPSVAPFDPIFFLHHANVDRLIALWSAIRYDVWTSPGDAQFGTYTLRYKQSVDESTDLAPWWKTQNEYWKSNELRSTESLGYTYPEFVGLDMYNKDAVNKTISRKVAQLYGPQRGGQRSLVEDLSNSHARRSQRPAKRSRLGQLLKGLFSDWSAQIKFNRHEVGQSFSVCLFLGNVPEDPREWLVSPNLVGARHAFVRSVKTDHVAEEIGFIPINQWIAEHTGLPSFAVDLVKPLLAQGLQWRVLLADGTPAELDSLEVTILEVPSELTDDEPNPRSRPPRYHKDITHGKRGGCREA
Sequence of Mushroom tyrosinase (Agaricus bisporus) (from UniProt O42713+Q00024+C7FF04+C7FF05) (O42713 whole entry, looked up): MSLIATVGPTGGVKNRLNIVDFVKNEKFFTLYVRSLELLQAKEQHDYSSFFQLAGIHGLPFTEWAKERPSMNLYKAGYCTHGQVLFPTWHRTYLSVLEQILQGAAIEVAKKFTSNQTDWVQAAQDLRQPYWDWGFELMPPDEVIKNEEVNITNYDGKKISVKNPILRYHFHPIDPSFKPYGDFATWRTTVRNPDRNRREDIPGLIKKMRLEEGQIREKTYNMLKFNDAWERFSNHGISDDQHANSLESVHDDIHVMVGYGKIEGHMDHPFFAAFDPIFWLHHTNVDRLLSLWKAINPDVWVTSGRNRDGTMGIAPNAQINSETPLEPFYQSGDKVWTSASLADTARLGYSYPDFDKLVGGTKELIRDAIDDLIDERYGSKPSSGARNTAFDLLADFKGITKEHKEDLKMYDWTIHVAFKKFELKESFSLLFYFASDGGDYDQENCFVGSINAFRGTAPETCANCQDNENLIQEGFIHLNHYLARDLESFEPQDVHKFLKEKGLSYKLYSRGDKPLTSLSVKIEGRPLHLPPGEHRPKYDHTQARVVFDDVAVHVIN

Work on `COC(=O)/C=C1\S/C(=N/N=C/C=C/c2ccccc2)NC1=O` yielded an IC50 (Mushroom tyrosinase [1]) of 208.25 µM.

Molecule “Mushroom tyrosinase (Agaricus bisporus) (from UniProt O42713+Q00024+C7FF04+C7FF05)” has a Vmax (10'-3deltaA/s) [2] of 3.33, a Vmax (10'-3deltaA/s) [3] of 1 and a Km [4] of 1000 µM. For the same molecule, the Vmax (10'-4deltaA/s) [5] was 5.55.

`COC(=O)/C=C1\S/C(=N/N=C/c2ccc(OCc3ccc(OC)cc3)cc2)NC1=O` was tested, and the IC50 (Mushroom tyrosinase [1]) was 297.6 µM.

In the case of `COC(=O)/C=C1\S/C(=N/N=C/c2ccc[nH]2)NC1=O`, the IC50 (Mushroom tyrosinase [1]) is reported as 50.12 µM.

`COC(=O)/C=C1\S/C(=N/N=C/c2ccc(C)o2)NC1=O` was tested, and the IC50 (Mushroom tyrosinase [1]) was 49.82 µM.

With `COC(=O)/C=C1\S/C(=N/N=C/c2ccc(OCc3ccccc3)cc2)NC1=O` the IC50 (Mushroom tyrosinase [1]) was 141.77 µM.

Work on `COC(=O)/C=C1\SC(N/N=C/c2ccco2)=NC1=O` yielded an IC50 (Mushroom tyrosinase [1]) of 75.26 µM.

`COC(=O)/C=C1\S/C(=N/N=C/c2ccncc2)NC1=O` was tested, and the IC50 (Mushroom tyrosinase [1]) was 3.17 µM, the inhibition [6] was “Active” and the Ki (Mushroom tyrosinase [7]) was 1.5 µM.

Work on `COC(=O)/C=C1\S/C(=N/N=C/c2ccc(Br)s2)NC1=O` yielded an IC50 (Mushroom tyrosinase [1]) of 348.93 µM.

Molecule `COC(=O)/C=C1\S/C(=N/N=C/c2ccc(N(C)C)cc2)NC1=O` has an IC50 (Mushroom tyrosinase [1]) of 100.45 µM.
